Experimental data published in patent publication US20250163104A1, “MACROCYCLIC IMMUNOMODULATORS” (priority 2021, published 2025).
Where a SMILES comes first, the peptide text is derived from it. Bridges are numbered along the chain shown (N, C = ends). [ ]: non-standard residue; d: D form. The star is where a group is joined. Phe(3-Ph) = N[C@@H](Cc1cccc(-c2ccccc2)c1)C(=O)O; Phe(4-COOH) = N[C@@H](Cc1ccc(C(=O)O)cc1)C(=O)O; Bip = N[C@@H](Cc1ccc(-c2ccccc2)cc1)C(=O)O; Phe(3-Me) = Cc1cccc(C[C@H](N)C(=O)O)c1; aIle = CC[C@@H](C)[C@H](N)C(=O)O; 3Pal = N[C@@H](Cc1cccnc1)C(=O)O; 4Pal = N[C@@H](Cc1ccncc1)C(=O)O; Cit = NC(=O)NCCC[C@H](N)C(=O)O; Carboxymethyl = O=C(O)C*; Orn = NCCC[C@H](N)C(=O)O; Dab = NCC[C@H](N)C(=O)O; Dap = NC[C@H](N)C(=O)O

Target: T1, human PD-1 / PD-L1-Ig binding on Jurkat cell line over-expressing human PD-1 (Jurkat-PD-1) (Homo sapiens, UniProt Q15116)
T1 construct: expressed in transfected cells; host or cells: Jurkat
T1 sequence (Q15116 25-288): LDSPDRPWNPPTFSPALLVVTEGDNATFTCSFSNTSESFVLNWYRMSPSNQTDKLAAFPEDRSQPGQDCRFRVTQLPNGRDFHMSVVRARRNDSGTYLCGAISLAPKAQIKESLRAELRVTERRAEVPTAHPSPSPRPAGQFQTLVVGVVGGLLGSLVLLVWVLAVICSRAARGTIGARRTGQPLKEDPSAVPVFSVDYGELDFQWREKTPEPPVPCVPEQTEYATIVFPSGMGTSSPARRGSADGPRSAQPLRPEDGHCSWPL
Assay: Jurkat-PD-1 Cell Binding High-Content Screening Assay (CBA)
Assay type: cell-based
Conditions: Jurkat HPD1_PDL1 IC50, Jurkat-PD-1 cells, PE-labeled PD-L1-Ig 20 nM final
How it was run: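 PE-PD-L1-Ig 20 nM final; cells in DMEM/10% FCS; cpd pre-incubation 2 h, 37° C; ligand 1 h; PFA fix + Hoechst 33342; high-content imaging read-out.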

Q: Which IC50 does the source give for CC(C)C[C@H]1NC(=O)[C@H](CCCN)NC(=O)[C@H](CCCNC(N)=O)NC(=O)[C@H](Cc2ccc(-c3ccccc3)cc2)NC(=O)[C@H](C(C)C)NC(=O)[C@H](Cc2c[nH]c3ccccc23)NC(=O)[C@H](CC(=O)O)NC(=O)[C@H](Cc2ccc(C(=O)O)cc2)NC(=O)[C@H](Cc2ccc(OCC(=O)O)cc2)NC(=O)CSC[C@@H](C(=O)N[C@@H](C)C(N)=O)NC(=O)[C@H]([C@@H](C)O)NC(=O)[C@H](C(C)C)NC(=O)[C@H](Cc2ccccc2)NC(=O)[C@H](CCN)NC1=O [Compound 1664] ({CH2CO}-Y(Carboxymethyl)[Phe(4-COOH)]DWV[Bip][Cit][Orn][dL][Dab]FVTCA-NH2; thioether N-14) here?
A: Its IC50 is 36.3 nM.

Same assay, conditions: Jurkat-PD-1 cells, PE-labeled PD-L1-Ig 20 nM final; read-out: Jurkat HPD1_PDL1 IC50

Q: With Cc1cccc(C[C@@H]2NC(=O)[C@H](CC(=O)O)NC(=O)[C@H](Cc3ccncc3)NC(=O)[C@H](CN)NC(=O)CSC[C@@H](C(N)=O)NC(=O)[C@H]([C@@H](C)O)NC(=O)[C@H](C(C)C)NC(=O)[C@H](CC(C)C)NC(=O)[C@H](CCN)NC(=O)[C@@H](CC(C)C)NC(=O)[C@H](CCCN)NC(=O)[C@H](CCCNC(N)=O)NC(=O)[C@H](Cc3cccc(-c4ccccc4)c3)NC(=O)[C@H](C(C)C)NC2=O)c1 [Compound 1654] ({CH2CO}-[Dap][4Pal]D[Phe(3-Me)]V[Phe(3-Ph)][Cit][Orn][dL][Dab]LVTC-NH2; thioether N-14) as the compound, how does the IC50 read?
A: Its IC50 is 124 nM.

Q: Which IC50 does the source give for Cc1cccc(C[C@@H]2NC(=O)[C@H](CC(=O)O)NC(=O)[C@H](Cc3ccc(OCC(=O)O)cc3)NC(=O)[C@H](Cc3cccnc3)NC(=O)CSC[C@@H](C(N)=O)NC(=O)[C@H]([C@@H](C)O)NC(=O)[C@H](C(C)C)NC(=O)[C@H](CC(C)C)NC(=O)[C@H](CCN)NC(=O)[C@@H](CC(C)C)NC(=O)[C@H](CCCN)NC(=O)[C@H](CCCNC(N)=O)NC(=O)[C@H](Cc3ccc(-c4ccccc4)cc3)NC(=O)[C@H](C(C)C)NC2=O)c1 [Compound 1655] ({CH2CO}-[3Pal]Y(Carboxymethyl)D[Phe(3-Me)]V[Bip][Cit][Orn][dL][Dab]LVTC-NH2; thioether N-14) here?
A: Its IC50 is 280 nM.

Q: How did the IC50 turn out when Cc1cccc(C[C@@H]2NC(=O)[C@H](CC(=O)O)NC(=O)[C@H](Cc3ccc(OCC(=O)O)cc3)NC(=O)[C@H](Cc3ccc(OCC(=O)O)cc3)NC(=O)CSC[C@@H](C(N)=O)NC(=O)[C@H](CO)NC(=O)[C@H](C(C)C)NC(=O)[C@H](CC(C)C)NC(=O)[C@H](CCN)NC(=O)[C@@H](CC(C)C)NC(=O)[C@H](CCCN)NC(=O)[C@H](CCCNC(N)=O)NC(=O)[C@H](Cc3ccc(-c4ccccc4)cc3)NC(=O)[C@H](CC(C)C)NC2=O)c1 [Compound 1656] ({CH2CO}-Y(Carboxymethyl)Y(Carboxymethyl)D[Phe(3-Me)]L[Bip][Cit][Orn][dL][Dab]LVSC-NH2; thioether N-14) was run?
A: The IC50 was 36.4 nM.

Q: For CC[C@@H](C)[C@@H]1NC(=O)[C@H](Cc2ccc(-c3ccccc3)cc2)NC(=O)[C@H](C(C)C)NC(=O)[C@H](Cc2cccc(C)c2)NC(=O)[C@H](CC(=O)O)NC(=O)[C@H](Cc2ccc(O)cc2)NC(=O)[C@H](CC(N)=O)NC(=O)CSC[C@@H](C(N)=O)NC(=O)[C@H]([C@@H](C)O)NC(=O)[C@H](C(C)C)NC(=O)[C@H](CC(C)C)NC(=O)[C@H](CCN)NC(=O)[C@@H](CC(C)C)NC(=O)[C@H](CCCN)NC1=O [Compound 1657] ({CH2CO}-NYD[Phe(3-Me)]V[Bip][aIle][Orn][dL][Dab]LVTC-NH2; thioether N-14), which IC50 is on record?
A: Its IC50 is 59.9 nM.

Q: CC[C@H](C)[C@@H]1NC(=O)[C@H](Cc2ccc(-c3ccccc3)cc2)NC(=O)[C@H](C(C)C)NC(=O)[C@H](Cc2c[nH]c3ccccc23)NC(=O)[C@H](CC(=O)O)NC(=O)[C@H](Cc2ccc(OCC(=O)O)cc2)NC(=O)[C@H](CN)NC(=O)CSC[C@@H](C(=O)N[C@@H](C)C(N)=O)NC(=O)[C@H]([C@@H](C)O)NC(=O)[C@H](C(C)C)NC(=O)[C@H](Cc2ccccc2)NC(=O)[C@H](CCN)NC(=O)[C@@H](CC(C)C)NC(=O)[C@H](CCCN)NC1=O [Compound 1658] ({CH2CO}-[Dap]Y(Carboxymethyl)DWV[Bip]I[Orn][dL][Dab]FVTCA-NH2; thioether N-14) was tested. Which IC50 did it give?
A: Its IC50 is 19.5 nM.

Q: How did the IC50 turn out when CC[C@H](C)[C@@H]1NC(=O)[C@H](Cc2ccc(-c3ccccc3)cc2)NC(=O)[C@H](C(C)C)NC(=O)[C@H](Cc2c[nH]c3ccccc23)NC(=O)[C@H](CC(=O)O)NC(=O)[C@H](Cc2ccc(C(=O)O)cc2)NC(=O)[C@H](Cc2ccc(OCC(=O)O)cc2)NC(=O)CSC[C@@H](C(=O)N[C@@H](C)C(N)=O)NC(=O)[C@H]([C@@H](C)O)NC(=O)[C@H](C(C)C)NC(=O)[C@H](Cc2ccccc2)NC(=O)[C@H](CCN)NC(=O)[C@@H](CC(C)C)NC(=O)[C@H](CCCN)NC1=O [Compound 1659] ({CH2CO}-Y(Carboxymethyl)[Phe(4-COOH)]DWV[Bip]I[Orn][dL][Dab]FVTCA-NH2; thioether N-14) was run?
A: The IC50 was 9.1 nM.

Q: How did the IC50 turn out when CC[C@H](C)[C@@H]1NC(=O)[C@H](Cc2ccc(-c3ccccc3)cc2)NC(=O)[C@H](C(C)C)NC(=O)[C@H](Cc2c[nH]c3ccccc23)NC(=O)[C@H](CC(=O)O)NC(=O)[C@H](Cc2ccc(OCC(=O)O)cc2)NC(=O)[C@H](Cc2ccc(OCC(=O)O)cc2)NC(=O)CSC[C@@H](C(=O)N[C@@H](C)C(N)=O)NC(=O)[C@H]([C@@H](C)O)NC(=O)[C@H](C(C)C)NC(=O)[C@H](Cc2ccccc2)NC(=O)[C@H](CCN)NC(=O)[C@@H](CC(C)C)NC(=O)[C@H](CCCN)NC1=O [Compound 1660] ({CH2CO}-Y(Carboxymethyl)Y(Carboxymethyl)DWV[Bip]I[Orn][dL][Dab]FVTCA-NH2; thioether N-14) was run?
A: Its IC50 is 20.6 nM.

Q: For CC(C)C[C@H]1NC(=O)[C@H](CCCN)NC(=O)[C@H](C(C)C)NC(=O)[C@H](Cc2ccc(-c3ccccc3)cc2)NC(=O)[C@H](C(C)C)NC(=O)[C@H](Cc2c[nH]c3ccccc23)NC(=O)[C@H](CC(=O)O)NC(=O)[C@H](Cc2ccc(OCC(=O)O)cc2)NC(=O)[C@H](CN)NC(=O)CSC[C@@H](C(=O)N[C@@H](C)C(N)=O)NC(=O)[C@H]([C@@H](C)O)NC(=O)[C@H](C(C)C)NC(=O)[C@H](Cc2ccccc2)NC(=O)[C@H](CCN)NC1=O [Compound 1661] ({CH2CO}-[Dap]Y(Carboxymethyl)DWV[Bip]V[Orn][dL][Dab]FVTCA-NH2; thioether N-14), which IC50 is on record?
A: The IC50 was 17 nM.

Q: With CC(C)C[C@H]1NC(=O)[C@H](CCCN)NC(=O)[C@H](C(C)C)NC(=O)[C@H](Cc2ccc(-c3ccccc3)cc2)NC(=O)[C@H](C(C)C)NC(=O)[C@H](Cc2c[nH]c3ccccc23)NC(=O)[C@H](CC(=O)O)NC(=O)[C@H](Cc2ccc(C(=O)O)cc2)NC(=O)[C@H](Cc2ccc(OCC(=O)O)cc2)NC(=O)CSC[C@@H](C(=O)N[C@@H](C)C(N)=O)NC(=O)[C@H]([C@@H](C)O)NC(=O)[C@H](C(C)C)NC(=O)[C@H](Cc2ccccc2)NC(=O)[C@H](CCN)NC1=O [Compound 1662] ({CH2CO}-Y(Carboxymethyl)[Phe(4-COOH)]DWV[Bip]V[Orn][dL][Dab]FVTCA-NH2; thioether N-14) as the compound, how does the IC50 read?
A: Its IC50 is 27.4 nM.

Q: How did the IC50 turn out when CC(C)C[C@H]1NC(=O)[C@H](CCCN)NC(=O)[C@H](C(C)C)NC(=O)[C@H](Cc2ccc(-c3ccccc3)cc2)NC(=O)[C@H](C(C)C)NC(=O)[C@H](Cc2c[nH]c3ccccc23)NC(=O)[C@H](CC(=O)O)NC(=O)[C@H](Cc2ccc(OCC(=O)O)cc2)NC(=O)[C@H](Cc2ccc(OCC(=O)O)cc2)NC(=O)CSC[C@@H](C(=O)N[C@@H](C)C(N)=O)NC(=O)[C@H]([C@@H](C)O)NC(=O)[C@H](C(C)C)NC(=O)[C@H](Cc2ccccc2)NC(=O)[C@H](CCN)NC1=O [Compound 1663] ({CH2CO}-Y(Carboxymethyl)Y(Carboxymethyl)DWV[Bip]V[Orn][dL][Dab]FVTCA-NH2; thioether N-14) was run?
A: The IC50 was 11.1 nM.

Q: For CC(C)C[C@H]1NC(=O)[C@H](CCCN)NC(=O)[C@H](CCCNC(N)=O)NC(=O)[C@H](Cc2ccc(-c3ccccc3)cc2)NC(=O)[C@H](C(C)C)NC(=O)[C@H](Cc2c[nH]c3ccccc23)NC(=O)[C@H](CC(=O)O)NC(=O)[C@H](Cc2ccc(OCC(=O)O)cc2)NC(=O)[C@H](Cc2ccc(OCC(=O)O)cc2)NC(=O)CSC[C@@H](C(=O)N[C@@H](C)C(N)=O)NC(=O)[C@H]([C@@H](C)O)NC(=O)[C@H](C(C)C)NC(=O)[C@H](Cc2ccccc2)NC(=O)[C@H](CCN)NC1=O [Compound 1665] ({CH2CO}-Y(Carboxymethyl)Y(Carboxymethyl)DWV[Bip][Cit][Orn][dL][Dab]FVTCA-NH2; thioether N-14), which IC50 is on record?
A: Its IC50 is 17 nM.

Q: With CC(C)C[C@H]1NC(=O)[C@H](CCCN)NC(=O)[C@H](CCC(=O)O)NC(=O)[C@H](Cc2ccc(-c3ccccc3)cc2)NC(=O)[C@H](C(C)C)NC(=O)[C@H](Cc2c[nH]c3ccccc23)NC(=O)[C@H](CC(=O)O)NC(=O)[C@H](Cc2ccc(OCC(=O)O)cc2)NC(=O)[C@H](CN)NC(=O)CSC[C@@H](C(=O)N[C@@H](C)C(N)=O)NC(=O)[C@H]([C@@H](C)O)NC(=O)[C@H](C(C)C)NC(=O)[C@H](Cc2ccccc2)NC(=O)[C@H](CCN)NC1=O [Compound 1666] ({CH2CO}-[Dap]Y(Carboxymethyl)DWV[Bip]E[Orn][dL][Dab]FVTCA-NH2; thioether N-14) as the compound, how does the IC50 read?
A: The IC50 was 17.3 nM.

Q: Which IC50 does the source give for CC(C)C[C@H]1NC(=O)[C@H](CCCN)NC(=O)[C@H](CCC(=O)O)NC(=O)[C@H](Cc2ccc(-c3ccccc3)cc2)NC(=O)[C@H](C(C)C)NC(=O)[C@H](Cc2c[nH]c3ccccc23)NC(=O)[C@H](CC(=O)O)NC(=O)[C@H](Cc2ccc(C(=O)O)cc2)NC(=O)[C@H](Cc2ccc(OCC(=O)O)cc2)NC(=O)CSC[C@@H](C(=O)N[C@@H](C)C(N)=O)NC(=O)[C@H]([C@@H](C)O)NC(=O)[C@H](C(C)C)NC(=O)[C@H](Cc2ccccc2)NC(=O)[C@H](CCN)NC1=O [Compound 1667] ({CH2CO}-Y(Carboxymethyl)[Phe(4-COOH)]DWV[Bip]E[Orn][dL][Dab]FVTCA-NH2; thioether N-14) here?
A: The IC50 was 30 nM.
